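The compound was tested at five concentrations on cells cultured in 96-well plates, with a 48-hour exposure period. GI50: concentration for 50% inhibition of growth.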 Calls of active or inactive are those of the source. Cut-off read from the data, not from the text of the source: active = GI50 up to about 1.1 µM and inactive = higher.
Key:
Assay in all cases: NCI anticancer screen, dose series, 48 h
[1] = tested on: HOP-92
[2] = tested on: Malme-3M
[3] = tested on: COLO 205
[4] = tested on: HOP-62
[5] = tested on: A549
[6] = tested on: OVCAR-4
[7] = tested on: NCI-H23
[8] = tested on: HL-60
[9] = tested on: K562
[10] = tested on: LOX IMVI
[11] = tested on: ACHN
[12] = tested on: CAKI-1
[13] = tested on: SW-620
[14] = tested on: UACC-257
[15] = tested on: SN12C
[16] = tested on: NCI-H460
[17] = tested on: EKVX
[18] = tested on: NCI/ADR-RES
[19] = tested on: KM12

Measured: GI50

O=C(CCCc1ccccn1)c1ccccc1
inactive: [1] > 100 µM | [2] > 100 µM | [3] > 100 µM | [4] > 100 µM | [5] > 100 µM | [6] > 100 µM | [7] > 100 µM | [8] > 100 µM | [9] > 100 µM | [10] > 100 µM | [11] > 100 µM | [12] > 100 µM | [13] > 100 µM | [14] > 100 µM | [15] > 100 µM | [16] > 100 µM | [17] > 100 µM | [18] > 100 µM

O=c1oc2ccccc2cc1-c1nc2ccccc2c(=O)[nH]1
inactive: [1] > 100 µM | [2] > 100 µM | [3] > 100 µM | [4] > 100 µM | [5] > 100 µM | [6] > 100 µM | [8] 21.9 µM | [9] > 100 µM | [19] > 100 µM | [10] > 100 µM | [11] 90.8 µM | [12] > 100 µM | [13] > 100 µM | [14] > 100 µM | [15] > 100 µM | [16] > 100 µM | [17] > 100 µM | [18] > 100 µM

O=C1CCCCN1C(=O)c1ccc([N+](=O)[O-])cc1
inactive: [1] > 100 µM | [2] > 100 µM | [4] > 100 µM | [5] > 100 µM | [6] > 100 µM | [7] > 100 µM | [8] > 100 µM | [9] > 100 µM | [19] > 100 µM | [10] > 100 µM | [11] > 100 µM | [12] > 100 µM | [13] > 100 µM | [14] > 100 µM | [15] 24 µM | [16] > 100 µM | [17] > 100 µM | [18] > 100 µM

NCc1ccc(-c2ccc(CN)s2)s1
inactive: [1] > 100 µM | [2] > 100 µM | [3] 23 µM | [4] > 100 µM | [5] > 100 µM | [6] > 100 µM | [7] > 100 µM | [8] > 100 µM | [9] > 100 µM | [19] > 100 µM | [10] > 100 µM | [11] > 100 µM | [12] > 100 µM | [13] > 100 µM | [14] 42.4 µM | [15] > 100 µM | [17] > 100 µM | [18] 13.1 µM

COc1cc(/C=N/c2ccc(Oc3ccc(Cl)cc3)c(Cl)c2)cc(OC)c1OC
inactive: [1] 19.1 µM | [2] 15.5 µM | [3] 17.2 µM | [4] 23.8 µM | [5] 18.5 µM | [6] 19.4 µM | [7] 20.2 µM | [8] 15 µM | [19] 21.3 µM | [10] 16.2 µM | [11] 29.1 µM | [12] 22.9 µM | [13] 34.2 µM | [14] 20.7 µM | [15] 20.9 µM | [16] 19.3 µM | [17] 21.1 µM | [18] 22.9 µM

COC(=O)c1ccc2cc(O)c(O)cc2c1
inactive: [1] 32.5 µM | [2] 35.8 µM | [3] 37.9 µM | [4] 56 µM | [5] 36.9 µM | [6] 43.6 µM | [7] 26.5 µM | [8] > 100 µM | [9] 33.9 µM | [19] 30.9 µM | [10] 36.1 µM | [11] 32.7 µM | [12] 78.2 µM | [13] 51.4 µM | [14] 29.8 µM | [15] 55.2 µM | [17] 20.5 µM | [18] 25.6 µM

Source: ChEMBL document CHEMBL1201862, “PubChem BioAssay data set” (2004)
